Like-named read-outs stand apart in the source and are kept apart here.
Tests used:
[1] = target: T1, Cav2.3 (Homo sapiens, UniProt Q15878); assay: Human Cav2.3 channel calcium-influx assay; format: cell-based; settings: HEK-293 T-Rex/Kir2.1 cells with inducible Cav2.3e-β4-α2δ1; Fluo8 fluorescence; 8-point dose response from 30 μM; no pluronic acid; read-out: Cav2.3 (pIC50) (converted)
Procedure: HEK-293 T-Rex cells were transfected with pcDNA3.1-Kir2.1 to generate a stable cell line. After antibiotic selection, the obtained stable pools were analysed using FLIPR^TETRA(membrane potential assay), and a limiting dilution was performed and a HEK-293 T-Rex/Kir2.1 clone was selected. The clone was transfected with pcDNA3.1-Cav2.3e and pBud-Cav-β4-α2δ1 to generate a stable cell line where the Cav2.3e expression is inducible. After antibiotic selection, functional clone pool analysis and two successive limiting dilutions, the final clone underwent a qPCR analysis and a biophysical and pharmacological validation using patch-clamp.
A compound plate, containing 10 test compounds in eight-points dose response with n=4, was prepared. Test compounds dose response curves were prepared in automated fashion in 100% DMSO at CyBio Felix and starting from a stock solution in 100% DMSO; a defined volume was serially moved into destination wells pre-filled with the desired DMSO volume; stock solution concentration volumes were dependent on the final compounds concentrations to be tested and the final DMSO content used in the assay. For the assay test compounds dose response curves ranged from 30 μM and half log dilution with 0.3% final DMSO. In order to obtain the 8-points dose response curve all the concentrations were created by starting from a 10 mM DMSO stock solution and then moving 9.5 μL into a destination well pre-filled with 20.5 μL of 100% DMSO and repeating this step seven times. This initial step was done into 96 MTP plates, 10 compounds/plate. One 384 MTP was then reformatted to contain all the 10 compounds at 8 concentrations, quadruplicate data points. This so obtained 384 MTP compound plate served as source plate in a “mother to child” process with a CyBi®-Well dispenser in which 0.7 μL of compounds were moved into a destination plate pre-filled with 57.6 μL of Tyrode's buffer 0 mM K^+, thus obtaining 4× concentrated compounds solution. In columns 1-2 and 23-24 the control wells were added. Both “source” compound plate and “destination” compound plate were barcoded and a relationship between the two plates was thus generated.
The day before the experiment, cells were detached by gentle wash with DPBS, followed by 5 min incubation at 37° C. with Trypsin solution. Detached cells were diluted with OptiMEM+Doxycycline at 0.2 μg/mL, counted and plated in Poly-D-Lysine coated black/clear bottom (15.000 c/well in 20 μl/well) by the use of a MATRIX WellMate dispenser. Plates were placed into a humidified incubator at 37° C. with 5% CO2 until the experimental day. 24 h after seeding 10 μL/well of 1.5× Fluo8 NW dye solution prepared in Tyrode's buffer 0 mM K^+ were added on top of the seeding medium. Cell plates were incubated for 40-60 min at RT in the dark. We then Injected off-line 10 μL/well of test compounds and controls 4× concentrated in Tyrode's Buffer 0 mM K+ with the CyBi®-Well instrument. Cell plates were incubated 3 minutes at RT. Finally, we injected 20 μL/well of 3× concentrated activator solution (K20-Na130-Ca2 buffer: 20 mM KCl, 130 mM NaCl, 2 mM CaCl2, 10 mM HEPES, 10 mM Glucose, final concentrations, prepared starting from “K0-Na150-Ca2” and “K150-Na0-Ca2” buffers) at FDSS7000EX instrument and read emitted fluorescence for 130 seconds.
Data analysis was performed with Genedata Screener® software and reported compounds activity as % effect in relation to the normalization standards. The Kinetic Response Value (KRV) is calculated as follows:
KRV=Maximal fluorescence recorded from second 5 to second 130 minus baseline fluorescence, computed as average from second 1 to second 2, of the kinetic trace. The KRV was normalized versus Neutral Controls and Inhibitor Controls in order to obtain the Activity[%] for each well. […] Therefore, the compound activity values were scaled (based on the two references) to a common range (two-point normalization). […]
Target sequence in this assay (Q15878 1-2270 isoform Q15878-3): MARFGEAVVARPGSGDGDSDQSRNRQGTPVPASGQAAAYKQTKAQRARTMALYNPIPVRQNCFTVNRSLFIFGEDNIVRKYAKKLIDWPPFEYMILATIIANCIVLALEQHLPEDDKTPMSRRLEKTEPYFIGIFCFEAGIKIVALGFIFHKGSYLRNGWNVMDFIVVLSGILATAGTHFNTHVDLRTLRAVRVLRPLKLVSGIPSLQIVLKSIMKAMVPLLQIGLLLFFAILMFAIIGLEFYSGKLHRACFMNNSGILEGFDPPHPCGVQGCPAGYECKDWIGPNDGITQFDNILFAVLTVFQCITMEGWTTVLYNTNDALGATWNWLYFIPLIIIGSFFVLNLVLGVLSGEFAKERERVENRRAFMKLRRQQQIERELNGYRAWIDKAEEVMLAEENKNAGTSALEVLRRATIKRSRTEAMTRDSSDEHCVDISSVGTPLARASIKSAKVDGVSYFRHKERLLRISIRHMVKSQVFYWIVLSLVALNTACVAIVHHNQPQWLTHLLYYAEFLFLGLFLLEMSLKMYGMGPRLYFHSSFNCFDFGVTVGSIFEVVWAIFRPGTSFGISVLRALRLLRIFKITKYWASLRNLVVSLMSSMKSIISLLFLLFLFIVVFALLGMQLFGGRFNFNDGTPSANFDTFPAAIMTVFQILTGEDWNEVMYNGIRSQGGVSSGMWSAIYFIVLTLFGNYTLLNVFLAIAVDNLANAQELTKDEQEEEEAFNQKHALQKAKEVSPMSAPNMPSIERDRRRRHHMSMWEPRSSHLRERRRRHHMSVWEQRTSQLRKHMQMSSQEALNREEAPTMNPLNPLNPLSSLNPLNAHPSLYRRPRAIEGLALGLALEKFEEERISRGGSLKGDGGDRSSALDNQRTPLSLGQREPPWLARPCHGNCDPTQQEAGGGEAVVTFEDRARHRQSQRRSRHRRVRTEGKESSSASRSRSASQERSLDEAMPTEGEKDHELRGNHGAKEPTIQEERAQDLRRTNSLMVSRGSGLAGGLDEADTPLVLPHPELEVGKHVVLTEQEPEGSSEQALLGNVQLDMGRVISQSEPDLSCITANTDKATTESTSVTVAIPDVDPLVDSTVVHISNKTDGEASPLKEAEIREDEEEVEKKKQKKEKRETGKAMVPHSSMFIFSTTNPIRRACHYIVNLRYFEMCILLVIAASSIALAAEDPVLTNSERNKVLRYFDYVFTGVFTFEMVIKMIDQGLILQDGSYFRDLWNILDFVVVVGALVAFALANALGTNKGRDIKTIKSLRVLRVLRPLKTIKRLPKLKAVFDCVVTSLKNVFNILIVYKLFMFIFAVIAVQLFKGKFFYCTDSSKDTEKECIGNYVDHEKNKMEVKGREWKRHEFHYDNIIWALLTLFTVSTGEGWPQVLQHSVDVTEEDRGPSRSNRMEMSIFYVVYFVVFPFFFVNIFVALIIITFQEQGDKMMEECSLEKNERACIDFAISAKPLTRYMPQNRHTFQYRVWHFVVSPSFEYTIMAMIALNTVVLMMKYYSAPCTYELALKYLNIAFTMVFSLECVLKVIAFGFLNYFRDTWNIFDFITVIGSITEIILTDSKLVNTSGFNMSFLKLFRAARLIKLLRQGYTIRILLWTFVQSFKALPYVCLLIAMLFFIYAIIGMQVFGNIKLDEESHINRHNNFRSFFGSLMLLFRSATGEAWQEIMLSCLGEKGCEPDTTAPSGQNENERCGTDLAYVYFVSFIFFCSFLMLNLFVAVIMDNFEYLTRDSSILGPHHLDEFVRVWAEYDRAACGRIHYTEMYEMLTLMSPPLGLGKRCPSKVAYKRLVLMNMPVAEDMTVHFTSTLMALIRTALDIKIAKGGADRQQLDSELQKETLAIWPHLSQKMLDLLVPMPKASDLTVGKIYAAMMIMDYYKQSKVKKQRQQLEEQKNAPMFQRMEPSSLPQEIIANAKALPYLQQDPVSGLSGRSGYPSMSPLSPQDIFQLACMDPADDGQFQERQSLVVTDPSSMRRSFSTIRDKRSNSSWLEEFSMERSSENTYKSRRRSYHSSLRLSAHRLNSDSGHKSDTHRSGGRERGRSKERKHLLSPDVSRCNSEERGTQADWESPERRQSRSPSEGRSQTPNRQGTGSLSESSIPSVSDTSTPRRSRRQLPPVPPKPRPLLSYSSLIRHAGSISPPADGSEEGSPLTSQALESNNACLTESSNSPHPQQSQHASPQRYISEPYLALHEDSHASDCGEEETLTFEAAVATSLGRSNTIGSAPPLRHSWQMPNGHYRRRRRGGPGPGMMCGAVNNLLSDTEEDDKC

[2] = target: Cav2.3 dependent current in HEK-293 T-Rex/Kir2.1/Cav2.3e-β4-α2δ1 cells (Homo sapiens, UniProt Q15878); assay: Whole-cell patch clamp assay (QPatch 16X); format: cell-based; settings: whole-cell voltage clamp, room temperature, inward current density; mean ± S.E; read-out: Cav2.3 (pIC50) (converted)
Procedure: HEK-293 T-Rex/Kir2.1/Cav2.3e-β4-α2δ1 cells were seeded 96 hours before experiment and doxycycline at 0.2 μg/mL was added 24 hours before experiment. Just before the experiments cells were washed twice with D-PBS w/o Ca2+/Mg2+ and gently detached from the flask with Detachin. Cells were then re-suspended in the suspension solution (25 mL EX-CELL ACF CHO medium; 0.25 mL of 100× Penicillin/Streptomycin) and placed on the Automated Patch-clamp platform (QPatch 16X).
Standard whole-cell voltage clamp experiments were performed at room temperature using the single hole technology and the following intracellular and extracellular solutions (ICS and ECS, respectively) were used. ICS (mM): CsF 60, CsCl 50, NaCl 10, EGTA 20, BAPTA 5, HEPES 10, NaGTP 0.3, MgATP 5 (pH 7.2; ECS (mM): NMDG-Cl 120, BaCl2 20, HEPES 10, EGTA 7 (pH 7.4). After establishment of the seal and the passage in the whole-cell configuration, the Cav2.3 dependent current was evoked by challenging the cells with the following voltage protocol: the plasma membrane was held at −80 mV then a 50 ms-long depolarizing pulse at 0 mV, followed by a 50 ms-long hyperpolarizing pulse at −100 mV were applied and finally the plasma membrane was held back to −80 mV. This voltage protocol was applied every 10 seconds. Cav2.3 dependent current was first measured in control condition (vehicle, 0.1% DMSO), in the presence of increasing concentration of the compound under investigation and finally SNX 482 was added to fully block any R-type Cav2.3 dependent current.
For data collection, the Sophion proprietary software was used while the analysis was performed off-line using Excel and GraphPad Prism. The inward current (Area Under Curve) measured during each depolarizing pulse was normalized to cell membrane capacitance (Cm) to obtain the average inward current density in each condition (control, compound under investigation and SNX 482). Then, the inhibitory effect of the compound under investigation was evaluated as % of the remaining inward current, normalized to the internal control. […] All data were expressed as mean±S.E

[3] = target: T1, Cav2.3; settings: read-out: IC50 against Cav2.3; cited from earlier work
Target sequence in this assay (Q15878 whole entry): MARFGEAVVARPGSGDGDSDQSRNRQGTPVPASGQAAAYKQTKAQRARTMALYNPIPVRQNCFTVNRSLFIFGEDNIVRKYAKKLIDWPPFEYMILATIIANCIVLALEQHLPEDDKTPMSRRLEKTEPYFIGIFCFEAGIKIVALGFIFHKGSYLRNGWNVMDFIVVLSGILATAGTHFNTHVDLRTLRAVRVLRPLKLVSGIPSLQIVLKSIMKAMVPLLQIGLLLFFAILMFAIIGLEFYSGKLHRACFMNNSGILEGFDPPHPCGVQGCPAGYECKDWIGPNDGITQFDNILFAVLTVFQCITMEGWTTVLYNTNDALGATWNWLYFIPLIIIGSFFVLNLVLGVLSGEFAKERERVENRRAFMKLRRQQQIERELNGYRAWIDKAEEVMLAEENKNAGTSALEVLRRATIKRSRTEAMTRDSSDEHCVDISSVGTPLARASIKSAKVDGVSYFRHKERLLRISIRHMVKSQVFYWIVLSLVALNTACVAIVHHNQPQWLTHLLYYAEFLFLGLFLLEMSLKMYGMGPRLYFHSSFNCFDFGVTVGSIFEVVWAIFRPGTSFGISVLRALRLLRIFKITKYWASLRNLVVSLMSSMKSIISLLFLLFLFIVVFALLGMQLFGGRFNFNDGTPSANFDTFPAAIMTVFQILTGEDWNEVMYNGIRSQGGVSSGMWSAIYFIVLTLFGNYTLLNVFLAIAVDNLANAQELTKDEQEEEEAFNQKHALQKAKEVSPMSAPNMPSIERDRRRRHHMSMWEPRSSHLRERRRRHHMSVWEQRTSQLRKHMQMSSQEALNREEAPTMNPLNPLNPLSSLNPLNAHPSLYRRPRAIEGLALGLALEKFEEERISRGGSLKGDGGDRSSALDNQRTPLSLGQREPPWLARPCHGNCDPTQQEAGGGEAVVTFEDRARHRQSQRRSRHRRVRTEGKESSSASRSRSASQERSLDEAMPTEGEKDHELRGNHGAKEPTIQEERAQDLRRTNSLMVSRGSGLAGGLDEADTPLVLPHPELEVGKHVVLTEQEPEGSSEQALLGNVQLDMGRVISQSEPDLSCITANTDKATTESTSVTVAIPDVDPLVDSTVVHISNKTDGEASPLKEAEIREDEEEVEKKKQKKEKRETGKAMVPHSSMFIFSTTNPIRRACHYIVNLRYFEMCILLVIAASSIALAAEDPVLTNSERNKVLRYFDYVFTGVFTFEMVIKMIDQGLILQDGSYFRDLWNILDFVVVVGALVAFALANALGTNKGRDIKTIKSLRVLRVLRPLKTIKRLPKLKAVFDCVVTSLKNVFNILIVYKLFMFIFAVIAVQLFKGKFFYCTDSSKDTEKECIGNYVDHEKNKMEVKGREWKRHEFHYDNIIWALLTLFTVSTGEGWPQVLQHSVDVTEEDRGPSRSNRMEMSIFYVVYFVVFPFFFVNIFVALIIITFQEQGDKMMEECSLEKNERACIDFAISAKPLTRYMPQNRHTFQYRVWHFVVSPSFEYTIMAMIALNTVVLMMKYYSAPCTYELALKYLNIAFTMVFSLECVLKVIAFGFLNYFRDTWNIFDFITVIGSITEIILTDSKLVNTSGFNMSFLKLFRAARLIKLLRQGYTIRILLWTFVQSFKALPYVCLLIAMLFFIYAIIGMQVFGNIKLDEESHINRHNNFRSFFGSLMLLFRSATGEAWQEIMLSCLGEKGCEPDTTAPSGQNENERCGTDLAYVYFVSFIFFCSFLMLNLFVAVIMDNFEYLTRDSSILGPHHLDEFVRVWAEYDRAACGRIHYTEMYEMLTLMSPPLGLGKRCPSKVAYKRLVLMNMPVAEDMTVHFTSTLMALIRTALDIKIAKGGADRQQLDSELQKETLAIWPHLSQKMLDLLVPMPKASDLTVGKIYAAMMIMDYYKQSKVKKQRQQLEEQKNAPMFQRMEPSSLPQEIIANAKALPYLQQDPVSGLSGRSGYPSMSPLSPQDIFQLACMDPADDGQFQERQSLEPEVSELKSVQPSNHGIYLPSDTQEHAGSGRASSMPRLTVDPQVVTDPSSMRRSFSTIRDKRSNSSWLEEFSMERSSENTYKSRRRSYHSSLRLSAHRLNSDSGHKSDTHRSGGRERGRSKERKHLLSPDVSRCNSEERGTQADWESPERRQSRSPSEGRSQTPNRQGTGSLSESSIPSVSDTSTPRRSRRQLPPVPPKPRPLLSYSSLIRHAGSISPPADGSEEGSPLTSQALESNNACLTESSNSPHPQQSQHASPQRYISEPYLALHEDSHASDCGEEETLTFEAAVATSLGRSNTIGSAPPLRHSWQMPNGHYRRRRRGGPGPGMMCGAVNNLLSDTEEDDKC

Chain of Cav2.3 dependent current in HEK-293 T-Rex/Kir2.1/Cav2.3e-β4-α2δ1 cells (Q15878 1-2270 isoform Q15878-3): as the sequence (Q15878 1-2270 isoform Q15878-3) above

Compound | IC50 [1] [nM] | IC50 [2] [nM] | IC50 [3] [nM]
CCN([C@@H](C)c1ccc(C(F)(F)F)cc1)S(=O)(=O)c1ccc2c(c1)CCN(C(=O)C(C)C)C2 [Example 20, (S)-N-ethyl-2-isobutyryl-N-(1-(4-(trifluoromethyl)phenyl)ethyl)-1,2,3,4-tetrahydroisoquinoline-6-sulfonamide] | 1580 | 372 | –
CCN([C@H](c1ccc(F)cc1)C(F)(F)F)S(=O)(=O)c1ccc2c(c1)CN(C(=O)C(C)C)CC2 (stereo in doubt) [Example 6, N-ethyl-2-isobutyryl-N-(2,2,2-trifluoro-1-(4-fluorophenyl)ethyl)-1,2,3,4-tetrahydroisoquinoline-7-sulfonamide] | 398 | 87.1 | –
CCN([C@@H](C)c1ccccc1)S(=O)(=O)c1ccc2c(c1)CN(C(=O)C1CC1)CC2 [Example 14, (S)-2-(cyclopropanecarbonyl)-N-ethyl-N-(1-phenylethyl)-1,2,3,4-tetrahydroisoquinoline-7-sulfonamide] | 724 | 1120 | –
CCN([C@@H](C)c1ccc(F)cc1)S(=O)(=O)c1ccc2c(c1)CN(C(=O)C(C)C)CC2 [Example 12, (S)-N-ethyl-N-(1-(4-fluorophenyl)ethyl)-2-isobutyryl-1,2,3,4-tetrahydroisoquinoline-7-sulfonamide] | 537 | 93.3 | –
CC(C)C(=O)N1CCc2ccc(S(=O)(=O)N(CCF)C(c3ccc(F)cc3)C(F)(F)F)cc2C1 (stereo not drawn) [Example 49, N-(2-fluoroethyl)-2-isobutyryl-N-(2,2,2-trifluoro-1-(4-fluorophenyl)ethyl)-1,2,3,4-tetrahydroisoquinoline-7-sulfonamide] | 513 | 204 | –
SNX-482 (GVDKAGCRYMFGGCSVNDDCCPRLGCHSLFSYCAWDLTFSD; UniProt P56854 1-41, looked up) | – | – | 15 to 30
CC(C)C(=O)N1CCc2ccc(S(=O)(=O)N(C)[C@H](c3ccc(F)cc3)C(F)(F)F)cc2C1 [Example 9, (R)-2-isobutyryl-N-methyl-N-(2,2,2-trifluoro-1-(4-fluorophenyl)ethyl)-1,2,3,4-tetrahydroisoquinoline-7-sulfonamide] | 676 | 525 | –
CCN([C@@H](C)c1ccc(C(F)(F)F)cc1)S(=O)(=O)c1ccc2c(c1)CN(C(=O)C(C)C)CC2 [Example 1, (S)-N-ethyl-2-isobutyryl-N-(1-(4-(trifluoromethyl)phenyl)ethyl)-1,2,3,4-tetrahydroisoquinoline-7-sulfonamide] | 661 | 251 | –

Source: patent US20250136552A1, “ANTAGONISTS OF CAV 2.3” (LARIO THERAPEUTICS LIMITED, priority 2021, published 2025)
